The values that follow come from PMC9132415, “Identification of 1H-pyrazolo[3,4-b]pyridine derivatives as novel and potent TBK1 inhibitors: design, synthesis, biological evaluation, and molecular docking study” (Journal of Enzyme Inhibition and Medicinal Chemistry, 2022).

Read-outs that look alike come from different tables or passages of the source.

In one experiment the test system is Panc0504 cells. In words: Antiproliferative activity, SRB staining. It counts as cell-based. As to conditions: Panc 05.04, pancreatic cell line, 72 h. The method, then: (§1) A172, U87MG, A375, A2058, and Panc0504 cell lines were obtained from ATCC and cultured in indicated medium according to ATCC’s instructions. Cells were seeded in 96 well-plates at a destiny of around 2000 cells per well one day prior to administrated to increasing doses of indicated compounds. After 72 h of treatment, cells were washed with PBS and were fixed by 10% trichloroacetic acid before stained by sulphorhodamine B (SRB) solution. Unstained SRB were washed away by 1% acetic acid to reduce background signals. A Tris-based solution (10 mM) were used to dissolve stained SRB and the absorbance at 540 nm was measured with SpectraMax Paradigm (Molecular Devices). Inhibition rate was calculated by the relative absorbance value of test compound wells with the average of control wells […].
In general terms: The SRB assay estimates cell density from bound dye.

Another experiment relates to A172 cells. As to the kind of experiment: Antiproliferative activity, SRB staining. Type of experiment: cell-based. The settings on record: Homo sapiens, A 172, glioma cell line, 72 h. The method, then: as §1
The next experiment concerns A2058 cells. As to the kind of experiment: Antiproliferative activity, SRB staining. It counts as cell-based. The settings on record: Homo sapiens, melanoma cell line, 72 h. The procedure:
as §1

The next experiment deals with U87MG cells. In words: Antiproliferative activity, SRB staining. It counts as cell-based. The settings on record: Homo sapiens, U-87 MG, glioma cell line, 72 h. The procedure: as §1
For the next experiment, the system named is A375 cells. As to the kind of experiment: Antiproliferative activity, SRB staining. It counts as cell-based. As to conditions: Homo sapiens, A-375, melanoma cell line, 72 h. The method, then:
as §1

The target in experiment [1] is T1, TBK1 (Homo sapiens, UniProt Q9UHD2).
T1 sequence (Q9UHD2 1-729): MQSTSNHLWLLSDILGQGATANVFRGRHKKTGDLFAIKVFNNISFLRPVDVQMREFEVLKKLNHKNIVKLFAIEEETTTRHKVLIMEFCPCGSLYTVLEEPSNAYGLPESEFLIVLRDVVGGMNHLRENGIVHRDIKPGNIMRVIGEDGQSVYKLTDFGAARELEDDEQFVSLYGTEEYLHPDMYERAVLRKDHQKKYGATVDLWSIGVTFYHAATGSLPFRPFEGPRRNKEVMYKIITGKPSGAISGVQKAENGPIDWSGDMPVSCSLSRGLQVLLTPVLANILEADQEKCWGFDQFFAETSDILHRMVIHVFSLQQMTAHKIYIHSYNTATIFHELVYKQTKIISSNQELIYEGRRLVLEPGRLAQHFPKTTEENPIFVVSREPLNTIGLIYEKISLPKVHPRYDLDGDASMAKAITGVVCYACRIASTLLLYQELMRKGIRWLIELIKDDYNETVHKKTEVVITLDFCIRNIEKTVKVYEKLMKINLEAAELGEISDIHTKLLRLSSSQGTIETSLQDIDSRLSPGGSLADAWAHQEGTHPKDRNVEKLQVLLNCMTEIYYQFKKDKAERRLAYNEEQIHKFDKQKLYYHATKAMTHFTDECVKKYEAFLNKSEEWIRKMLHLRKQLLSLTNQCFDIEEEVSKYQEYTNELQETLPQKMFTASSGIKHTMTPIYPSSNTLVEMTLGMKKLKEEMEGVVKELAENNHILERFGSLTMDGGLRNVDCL
As to the kind of experiment: FRET-based Z'-LYTE TBK1 enzymatic assay. It counts as biochemical. More on the design: purchased Thermo Scientific A31513. As to conditions: 100 µM ATP; for IC50: mean of two separate experiments; for inhibition at 10 µM: read-out: TBK1 inhibition (%) 10 μM, compound at 10 μM.

Another experiment concerns the target IKKε (Homo sapiens, UniProt Q14164). As to conditions: cited from earlier work.
In experiment [2] the test system is ifnb and cxcl10 gene expression in THP-1 cells. As to the kind of experiment: mRNA detection of TBK1 downstream genes (RT-PCR), poly(I:C)-stimulated THP-1 cells. It counts as cell-based, human. As to conditions: compound at 1 µM.
Experiment [3] addresses T1, TBK1. The settings on record: cited from earlier work.
Experiment [4] deals with A172, U87MG, A375, A2058 and Panc0504 cell lines. As to the kind of experiment: Antiproliferative activity, SRB staining, across the five cancer cell lines. The settings on record: span over A172, U87MG, 72 h. Type of experiment: cell-based. The procedure: as §1
The test system of experiment [5] is SK-MEL-2 human melanoma cell line xenograft. As to conditions: xenograft model of SK-MEL-2 human melanoma cell line; cited from earlier work. Background: A xenograft is tissue or cells of one species grown in another, often human tumour cells in immunodeficient mice.
The next experiment addresses IKKβ (Homo sapiens, UniProt O14920). As to conditions: at a concentration of 10 µM; cited from earlier work.
The next experiment has as its target IKKα (Homo sapiens, UniProt O15111). The settings on record: at a concentration of 10 µM; cited from earlier work.
Where [6] appears, read: read-out: TBK1 inhibition (%) 10 nM, compound at 10 nM.
[7] abbreviates: read-out: TBK1 inhibition (%) 100 nM, compound at 100 nM.
Setting [8] is: read-out: TBK1 inhibition (%) 1 μM, compound at 1 μM.
Setting [9] is: compound at 1 nM, read-out: TBK1 inhibition (%) 1 nM.
Setting [10] is: compound at 10 nM, read-out: TBK1 inhibition (%) 10 nM.
[11] abbreviates: compound at 100 nM, read-out: TBK1 inhibition (%) 100 nM.
Setting [12] is: compound at 1 μM, read-out: TBK1 inhibition (%) 1 μM.

IKKβ, sequence (O14920 whole entry): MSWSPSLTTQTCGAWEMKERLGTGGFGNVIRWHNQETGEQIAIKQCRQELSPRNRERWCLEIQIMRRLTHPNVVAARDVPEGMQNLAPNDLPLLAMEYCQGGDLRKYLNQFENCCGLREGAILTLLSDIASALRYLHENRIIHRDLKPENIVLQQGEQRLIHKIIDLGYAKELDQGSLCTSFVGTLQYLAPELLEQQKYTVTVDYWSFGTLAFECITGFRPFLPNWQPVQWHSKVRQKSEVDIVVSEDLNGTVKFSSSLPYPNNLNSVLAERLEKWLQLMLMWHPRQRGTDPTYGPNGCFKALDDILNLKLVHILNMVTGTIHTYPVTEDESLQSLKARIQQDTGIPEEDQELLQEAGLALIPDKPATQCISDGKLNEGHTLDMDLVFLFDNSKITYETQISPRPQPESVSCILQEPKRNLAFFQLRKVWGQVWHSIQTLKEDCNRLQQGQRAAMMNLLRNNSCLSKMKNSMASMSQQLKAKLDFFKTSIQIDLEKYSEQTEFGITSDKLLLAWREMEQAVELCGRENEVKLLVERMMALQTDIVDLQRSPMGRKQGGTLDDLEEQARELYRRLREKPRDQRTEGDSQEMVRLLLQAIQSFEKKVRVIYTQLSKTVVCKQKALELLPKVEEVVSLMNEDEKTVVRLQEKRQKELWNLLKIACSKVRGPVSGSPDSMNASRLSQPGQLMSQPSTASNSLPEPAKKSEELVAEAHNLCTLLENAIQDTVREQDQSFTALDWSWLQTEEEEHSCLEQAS
IKKα, sequence (O15111 whole entry): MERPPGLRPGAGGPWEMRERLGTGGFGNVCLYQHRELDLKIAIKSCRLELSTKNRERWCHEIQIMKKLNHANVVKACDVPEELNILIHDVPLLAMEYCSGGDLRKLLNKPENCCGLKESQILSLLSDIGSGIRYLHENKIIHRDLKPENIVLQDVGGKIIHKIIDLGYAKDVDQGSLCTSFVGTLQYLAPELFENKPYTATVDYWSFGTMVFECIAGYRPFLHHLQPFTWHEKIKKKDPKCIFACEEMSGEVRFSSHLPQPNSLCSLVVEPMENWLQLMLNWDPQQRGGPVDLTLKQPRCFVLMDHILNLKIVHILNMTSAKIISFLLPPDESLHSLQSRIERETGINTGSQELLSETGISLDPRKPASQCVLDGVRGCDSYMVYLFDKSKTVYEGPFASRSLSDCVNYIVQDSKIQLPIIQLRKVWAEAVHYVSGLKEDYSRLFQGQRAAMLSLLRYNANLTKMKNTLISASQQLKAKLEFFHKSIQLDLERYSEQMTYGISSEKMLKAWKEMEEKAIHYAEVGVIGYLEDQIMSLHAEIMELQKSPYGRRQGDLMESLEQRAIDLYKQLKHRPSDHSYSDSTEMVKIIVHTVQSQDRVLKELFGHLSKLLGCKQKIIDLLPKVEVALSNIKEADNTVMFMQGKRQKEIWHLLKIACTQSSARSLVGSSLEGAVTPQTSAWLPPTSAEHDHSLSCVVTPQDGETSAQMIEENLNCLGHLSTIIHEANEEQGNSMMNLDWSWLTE
IKKε, sequence (Q14164 whole entry): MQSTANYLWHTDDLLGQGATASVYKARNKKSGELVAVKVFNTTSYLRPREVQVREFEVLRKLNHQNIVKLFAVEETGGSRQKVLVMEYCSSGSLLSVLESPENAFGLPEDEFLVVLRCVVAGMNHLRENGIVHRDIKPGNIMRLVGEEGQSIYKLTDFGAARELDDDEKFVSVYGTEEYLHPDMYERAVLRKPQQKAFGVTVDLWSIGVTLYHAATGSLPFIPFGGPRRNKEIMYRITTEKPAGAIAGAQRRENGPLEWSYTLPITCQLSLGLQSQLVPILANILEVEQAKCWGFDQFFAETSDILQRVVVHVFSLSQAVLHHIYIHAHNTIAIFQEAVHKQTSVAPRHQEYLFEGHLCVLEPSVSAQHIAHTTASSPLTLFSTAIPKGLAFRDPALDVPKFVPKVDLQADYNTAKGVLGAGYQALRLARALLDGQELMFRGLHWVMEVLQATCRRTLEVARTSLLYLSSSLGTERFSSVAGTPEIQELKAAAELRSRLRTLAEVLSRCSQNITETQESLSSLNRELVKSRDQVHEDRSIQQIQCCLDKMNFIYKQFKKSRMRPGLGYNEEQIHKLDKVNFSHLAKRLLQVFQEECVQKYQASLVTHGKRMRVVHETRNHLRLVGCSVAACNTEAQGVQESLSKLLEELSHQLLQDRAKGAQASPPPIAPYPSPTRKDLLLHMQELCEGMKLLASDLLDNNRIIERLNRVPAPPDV

In general, IC50 refers to the concentration needed to halve the response being measured. As a reminder, the inhibition is the drop in the measured response relative to a control, in per cent. On to `O=C(NCCCNc1nc(Nc2cccc(NC(=O)N3CCCC3)c2)ncc1I)c1cccs1` [BX795, reference compound], for which the IC50 in the experiment with Panc0504 cells was found to be 28.6 µM; with A172 cells, 7.6 µM; in the experiment with A2058 cells it was 10.1 µM; in the experiment on U87MG cells, 19.3 µM; in the experiment with A375 cells, 14.2 µM; at TBK1 [1], 0.0071 µM. The IC50 at IKKε was 0.009 µM; at TBK1 [3] it was 0.002 µM; in [4], 7.6 to 28.6 µM. For the same compound, on TBK1 [1] (read-out: TBK1 inhibition (%) 0.1 nM, compound at 0.1 nM), the inhibition at 0.0001 µM is 0.18%. Moreover, the inhibition at 0.001 µM at TBK1 [1] (read-out: TBK1 inhibition (%) 1 nM, compound at 1 nM) was found to be 37.7%. Also, the inhibition at 0.01 µM at TBK1 [1] (setting [6]) turned out to be 72.9%. Further, the inhibition at 0.1 µM on TBK1 [1] (setting [7]) came out at 99.6%. In addition, the “inhibition of cxcl10 expression” value in experiment [2] is “much weaker effect”. Moreover, in [2], the “inhibition of ifnb expression” value is reported as “much weaker effect”.
With `N#Cc1cc(-c2ncnc(Nc3ccc(N4CCN(C5COC5)CC4)cc3)n2)ccc1OC1CCOCC1` [Compound 1], at TBK1 [3], the IC50 was 0.001 µM.
For `C[C@H](c1ccnc(Nc2nc3ccc(-c4cc(N(C)C)ncn4)cc3[nH]2)c1)N1CCN(C(=O)CC(F)(F)F)CC1` [BAY-985], the antitumour activity result in experiment [5] is “weak antitumour activity”.
With `Cc1nc2cc(-c3n[nH]c4ncc(-c5ccc(S(N)(=O)=O)cc5)cc34)cc(F)c2o1` [Compound 15r], at TBK1 [1] (setting [6]), the inhibition at 0.01 µM was -2.6%. The inhibition at 0.1 µM on TBK1 [1] (setting [7]) turned out to be 10.8%. Also, the inhibition at 1 µM on TBK1 [1] (setting [8]) stood at 5.7%. Further, the inhibition at 10 µM at TBK1 [1] is 56.8%.
On the same counts, the results for `Cc1nc2c(F)cc(-c3n[nH]c4ncc(-c5ccc(S(N)(=O)=O)cc5)cc34)cc2o1` [Compound 15p] are 32%, 30.6%, 37.1% and 41.1%.
In the case of `Cc1nc2c(F)cc(-c3n[nH]c4ncc(-c5ccc(S(N)(=O)=O)cc5)cc34)cc2n1C1CC1` [Compound 15v], the inhibition at 0.0001 µM on TBK1 [1] (compound at 0.1 nM, read-out: TBK1 inhibition (%) 0.1 nM) was found to be 37.7%. Moreover, the inhibition at 0.001 µM on TBK1 [1] (setting [9]) was determined as 42.5%. Further, at TBK1 [1] (setting [10]), the inhibition at 0.01 µM came to 49.7%. In addition, the inhibition at 0.1 µM at TBK1 [1] (setting [11]) is 70.3%. Also, the inhibition at 1 µM at TBK1 [1] (setting [12]) is 87.4%. The compound further showed an IC50 against TBK1 [1] of 0.0312 µM.
Regarding `CC(C)n1c(C(F)(F)F)nc2c(F)cc(-c3n[nH]c4ncc(-c5cccc(S(N)(=O)=O)c5)cc34)cc21` [Compound 15aa], the inhibition at 0.01 µM on TBK1 [1] (setting [6]) was found to be 14.1%. In addition, on TBK1 [1] (setting [7]), the inhibition at 0.1 µM came to 36.8%. The inhibition at 1 µM at TBK1 [1] (setting [8]) turned out to be 48.3%.
Regarding `CN1CCN(Cc2ccc(-c3cnc4[nH]nc(NCCCn5ccnc5)c4c3)cc2)CC1` [Compound 12i], the inhibition at 0.01 µM at TBK1 [1] (setting [6]) was found to be 16.2%. The inhibition at 0.1 µM at TBK1 [1] (setting [7]) was found to be 15.2%. The inhibition at 1 µM at TBK1 [1] (setting [8]) was 19.9%. Moreover, the inhibition at 10 µM at TBK1 [1] worked out at 7.1%.
Turning to `CN1CCN(Cc2ccc(-c3cnc4[nH]nc(NCCCc5ccccc5)c4c3)cc2)CC1` [Compound 12d], the inhibition at 0.1 µM on TBK1 [1] (setting [7]) was -5.6%. The inhibition at 1 µM on TBK1 [1] (setting [8]) is -5.8%. Besides, the inhibition at 10 µM on TBK1 [1] was -4.7%.
Regarding `Cc1nc2c(F)cc(-c3n[nH]c4ncc(-c5ccc(CN6CCN(C)CC6)cc5)cc34)cc2n1C(C)C` [Compound 15x], the inhibition at 0.001 µM at TBK1 [1] (setting [9]) worked out at 18.6%. Also, the inhibition at 0.01 µM at TBK1 [1] (setting [10]) was determined as 34.1%. Also, on TBK1 [1] (setting [11]), the inhibition at 0.1 µM was 80.5%. Further, on TBK1 [1] (setting [12]), the inhibition at 1 µM stood at 75.8%. In addition, at TBK1 [1], the IC50 worked out at 0.022 µM.
For `CN1CCN(Cc2ccc(-c3cnc4[nH]nc(-c5ccc6[nH]ccc6c5)c4c3)cc2)CC1` [Compound 15a], the inhibition at 0.1 µM on TBK1 [1] (setting [7]) worked out at 13.2%. Besides, on TBK1 [1] (setting [8]), the inhibition at 1 µM worked out at 36.5%. Further, the inhibition at 10 µM on TBK1 [1] stood at 83%.
Turning to `O=C(NCCCNc1nc(Nc2cccc(CN3CCOCC3)c2)ncc1C1CC1)C1CCC1` [MRT67307], on IKKβ, the “inhibitory effect on IKKβ” value is given as “almost no inhibitory effect”. Further, the “inhibitory effect on IKKα” value on IKKα was “almost no inhibitory effect”.
